Source: patent publication US8420696B2, “Use of low-dose ladostigil for neuroprotection” (priority 2005, dated 2013)

Columns and labels:
[1] = system: memory deficits after icv injections of STZ; conditions: chronic treatment; cited from earlier work
[2] = system: rats injected icv with Aβ(1-40); conditions: cited from earlier work
[3] = system: MAO-A; assay: In vivo MAO inhibition assay (MAO-A); set-up: species or system Rats and mice
Experimental: (§1) The level of MAO (MAO-A and MAO-B) inhibition can be determined by routine methods, including those detailed below.
(§2) Rats and mice are treated by subcutaneous (s.c.) or intraperitoneal (i.p.) injection or oral (p.o.) administration of the compound to be tested. Animals are decapitated approximately 2 hours after drug treatment and MAO activity is determined in the brain, intestine, and/or liver. MAO activity is expressed as percentage of enzyme activity relative to a control group administered with vehicle only. Effective doses producing 50% MAO inhibition (ED50 values) are calculated from inhibition curves.
(§3) Repeated treatment by ladostigil (e.g. daily doses for 7 days) can be used to calculate inhibition achieved through chronic administration.

[4] = system: MAO-B; assay: In vivo MAO inhibition assay (MAO-B); set-up: species or system Rats and mice
Experimental: as §1, §2, §3

[5] = system: ChE; assay: In vivo ChE inhibition assay; set-up: species or system cynomolgus monkeys; conditions: acute or chronic administration, amounts up to 7.0 mg/kg ladostigil base
Experimental: The level of ChE inhibition can be determined by routine methods, including those detailed below.
In vivo measurement of ChE inhibition is similar to that of in vivo measurement of MAO inhibition, except that cynomolgus monkeys are treated, and tissues are examined for brain, plasma and erythrocytes ChE inhibition.

[6] = acute administration, amounts up to 20.4 mg/kg of ladostigil base
[7] = chronic administration, amounts up to 4.5 mg/kg of ladostigil base

Compound: COc1ccc2[nH]cc(CCNC(C)=O)c2c1 [melatonin]
- Memory deficits 3-8 weeks after icv STZ [1]: can be reduced

Compound: CC12CC3CC(C)(C1)CC(N)(C3)C2 [memantine]
- Activation of microglia and astrocytes and memory deficits after icv Aβ(1-40) [2]: reduced the activation of microglia and astrocytes and the memory deficits

Compound: Oc1ccc(C=Cc2cc(O)cc(O)c2)cc1 [resveratrol]
- Memory deficits 3-8 weeks after icv STZ [1]: can be reduced

Compound: R(+)-6-(N-methyl,N-ethyl-carbamoyloxy)-N′-propargyl-1-aminoindan [ladostigil tartrate]
- MAO inhibition (MAO-A) [3, 6]: no more than 25%
- MAO inhibition (MAO-A) [3, 7]: no more than 25%
- MAO inhibition (MAO-B) [4, 6]: no more than 25%
- MAO inhibition (MAO-B) [4, 7]: no more than 25%
- ChE inhibition [5]: no more than 30%
